Reference: publication PMC10892019, “Molecular Characterization of Plant Volatile Compound Interactions with Cnaphalocrocis medinalis Odorant-Binding Proteins” (Plants, 2024)
Where two headings read alike, the source gives them in different places. Values belong to the compound of their own block, whether it stands above or below them.

Experiments:
SaveOBP9 = target: SaveOBP9; parameters: method as in PMID 33172024; conditions: SaveOBP9, strong binding force; cited from earlier work
CmedGOBP1 = CmedGOBP1 (Cnaphalocrocis medinalis, UniProt H9XFD0); experiment: Fluorescence competitive binding assay (1-NPN) with CmedGOBP1
Chain of CmedGOBP1 (H9XFD0 entry or part of it): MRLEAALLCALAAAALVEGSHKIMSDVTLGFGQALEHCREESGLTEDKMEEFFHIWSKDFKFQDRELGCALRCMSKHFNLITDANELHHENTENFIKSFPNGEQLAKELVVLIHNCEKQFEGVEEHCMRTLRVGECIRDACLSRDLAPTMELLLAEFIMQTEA
Experimental: (§1) The method for fluorescence competition binding was the same as that described by Zeng et al. (2018). The fluorescent probe N-phenyl-1-naphthylamine (1-NPN) (Sangon Biotech, Shanghai, China) and phenylacetaldehyde, benzyl acetate, 1-heptanol, and hexanal (Aladdin, Shanghai, China) were diluted to 100 mM stocks in chromatographic-grade methanol and stored at −20 °C. Working solutions of 1 mM 1-NPN and each odorant were made up in methanol. Each CmedOBP solution was diluted in 1 mM Tris-HCl buffer to a final concentration of 2 μM.
(§2) The RF5301PC fluorescence spectrophotometer (Shimadzu, Japan) was operated at an excitation wavelength of 337 nm and an emission wavelength of 405 nm (with excitation and emission slits of 5 nm and 10 nm, respectively). For each protein solution, 2 mL of diluted protein was added to the quartz cuvette, then 4 μL aliquots of 1-NPN solution were added at 2 min intervals to bring the final concentration of the probe to 2 μM. After the fluorescence intensity was stable, the maximum fluorescence value was recorded. The 1 mM volatile samples dissolved in methanol were then added to a final concentration of 20 μM. After 2 min, when the fluorescence value no longer fluctuated, the maximum fluorescence value was recorded. Each odor sample was tested in three technical replicates.
(§3) The binding ability of each protein to each odorant was determined by plotting the fluorescence intensity against the ligand concentration. Trend lines were linearized with the Scatchard method, then used to calculate the half-maximal inhibition concentration (IC50) of the ligand. The competition constant was calculated from the IC50 value as follows: Ki = [IC50]/(1 + [1-NPN]/K1-NPN) where 1-NPN is the concentration of free 1-NPN, and K1-NPN is the dissociation constant of the CmedOBP/[1-NPN] complex. The dissociation constant (Ki) was inversely correlated with the binding force between the protein and the odorant. At Ki > 50 μmol/L, the protein was considered to have no binding force with the volatile; at 20 μmol/L < Ki < 50 μmol/L, the protein was considered to have a weak binding force with the volatile; and at 0 μmol/L < Ki < 20 μmol/L, the protein was considered to have a strong binding force with the analyzed volatile.

CmedGOBP2 = CmedGOBP2 (Cnaphalocrocis medinalis, UniProt H9XFD1); experiment: Fluorescence competitive binding assay (1-NPN) with CmedGOBP2
Chain of CmedGOBP2 (H9XFD1 entry or part of it): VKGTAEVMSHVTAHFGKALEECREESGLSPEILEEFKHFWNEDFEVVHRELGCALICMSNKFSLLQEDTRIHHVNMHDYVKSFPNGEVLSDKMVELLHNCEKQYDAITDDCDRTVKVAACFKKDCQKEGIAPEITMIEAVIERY
Experimental: as §1, §2, §3

CmedPBP2 = CmedPBP2 (Cnaphalocrocis medinalis, UniProt M4YHW5); experiment: Fluorescence competitive binding assay (1-NPN) with CmedPBP2
Chain of CmedPBP2 (M4YHW5 entry or part of it): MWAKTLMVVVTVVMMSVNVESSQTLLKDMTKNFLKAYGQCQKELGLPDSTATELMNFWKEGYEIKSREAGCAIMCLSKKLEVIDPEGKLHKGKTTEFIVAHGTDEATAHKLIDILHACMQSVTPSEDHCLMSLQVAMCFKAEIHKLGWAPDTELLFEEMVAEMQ
Experimental: as §1, §2, §3

CmedOBP1 = CmedOBP1 (Cnaphalocrocis medinalis, UniProt H9XFD2); experiment: Fluorescence competitive binding assay (1-NPN) with CmedOBP1
Chain of CmedOBP1 (H9XFD2 entry or part of it): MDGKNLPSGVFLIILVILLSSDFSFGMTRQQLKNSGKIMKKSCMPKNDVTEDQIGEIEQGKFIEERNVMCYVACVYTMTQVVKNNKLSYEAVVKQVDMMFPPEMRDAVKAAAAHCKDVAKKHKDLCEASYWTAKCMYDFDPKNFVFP
Experimental: as §1, §2, §3

CmedOBP6 = CmedOBP6 (Cnaphalocrocis medinalis, UniProt A0A0U3C2E7); experiment: Fluorescence competitive binding assay (1-NPN) with CmedOBP6
Chain of CmedOBP6 (A0A0U3C2E7 entry or part of it): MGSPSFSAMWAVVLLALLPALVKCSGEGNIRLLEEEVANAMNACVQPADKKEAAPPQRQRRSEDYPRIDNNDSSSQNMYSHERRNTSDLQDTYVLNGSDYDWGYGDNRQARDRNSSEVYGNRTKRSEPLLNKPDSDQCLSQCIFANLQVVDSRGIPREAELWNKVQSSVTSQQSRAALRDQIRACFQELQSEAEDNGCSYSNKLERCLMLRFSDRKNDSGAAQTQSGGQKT
Experimental: as §1, §2, §3

CmedOBP15 = CmedOBP15 (Cnaphalocrocis medinalis, UniProt A0A0U3C6L3); experiment: Fluorescence competitive binding assay (1-NPN) with CmedOBP15
Chain of CmedOBP15 (A0A0U3C6L3 entry or part of it): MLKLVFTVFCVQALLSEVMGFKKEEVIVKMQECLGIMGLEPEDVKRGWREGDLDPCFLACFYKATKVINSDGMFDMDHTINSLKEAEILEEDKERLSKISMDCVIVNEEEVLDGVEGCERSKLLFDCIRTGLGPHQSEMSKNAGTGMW
Experimental: as §1, §2, §3

CmedOBP26 = CmedOBP26 (Cnaphalocrocis medinalis, UniProt A0A1P8SKA7); experiment: Fluorescence competitive binding assay (1-NPN) with CmedOBP26
Chain of CmedOBP26 (A0A1P8SKA7 entry or part of it): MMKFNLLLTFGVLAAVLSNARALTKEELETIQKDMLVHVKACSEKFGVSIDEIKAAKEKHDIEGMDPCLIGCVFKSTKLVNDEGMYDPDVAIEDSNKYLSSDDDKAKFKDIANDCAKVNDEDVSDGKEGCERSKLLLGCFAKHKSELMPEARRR
Experimental: as §1, §2, §3

[1] = Ki, CmedOBP1 2 μM, 1-NPN probe 2 μM, calculated from IC50
[2] = Ki, CmedOBP15 2 μM, 1-NPN probe 2 μM, calculated from IC50
[3] = CmedGOBP1 2 μM, 1-NPN probe 2 μM, calculated from IC50, read-out: Ki
[4] = CmedGOBP1 2 μM, 1-NPN probe 2 μM, read-out: IC50
[5] = CmedGOBP2 2 μM, 1-NPN probe 2 μM, calculated from IC50, read-out: Ki
[6] = CmedGOBP2 2 μM, 1-NPN probe 2 μM, read-out: IC50
[7] = CmedPBP2 2 μM, 1-NPN probe 2 μM, calculated from IC50, read-out: Ki
[8] = CmedPBP2 2 μM, 1-NPN probe 2 μM, read-out: IC50
[9] = CmedOBP1 2 μM, 1-NPN probe 2 μM, calculated from IC50, read-out: Ki
[10] = CmedOBP1 2 μM, 1-NPN probe 2 μM, read-out: IC50
[11] = CmedOBP6 2 μM, 1-NPN probe 2 μM, calculated from IC50, read-out: Ki
[12] = CmedOBP6 2 μM, 1-NPN probe 2 μM, read-out: IC50
[13] = CmedOBP15 2 μM, 1-NPN probe 2 μM, calculated from IC50, read-out: Ki
[14] = CmedOBP15 2 μM, 1-NPN probe 2 μM, read-out: IC50
[15] = CmedOBP26 2 μM, 1-NPN probe 2 μM, calculated from IC50, read-out: Ki
[16] = CmedOBP26 2 μM, 1-NPN probe 2 μM, read-out: IC50

Compound: CCCCCCCCCC=O [decanal]
- Ki (SaveOBP9): < 10 µM

Compound: O=CCc1ccccc1 [Phenylacetaldehyde, phenylacetaldehyde]
- IC50 (CmedGOBP1): 162 µM
- Ki (CmedGOBP1): > 50 µM
- IC50 (CmedGOBP2): 123 µM
- Ki (CmedGOBP2): > 50 µM
- IC50 (CmedPBP2): 85.8 µM
- Ki (CmedPBP2): > 50 µM
- IC50 (CmedOBP1): 77.5 µM
- Ki (CmedOBP1; Ki value, CmedOBP1): < 20 µM
- Ki (CmedOBP1; [1]): 13.7 µM
- IC50 (CmedOBP6): 357 µM
- Ki (CmedOBP6): > 50 µM
- IC50 (CmedOBP15): 44.3 µM
- Ki (CmedOBP15; Ki value, CmedOBP15): < 20 µM
- Ki (CmedOBP15; [2]): 17.5 µM
- IC50 (CmedOBP26): 458 µM
- Ki (CmedOBP26): > 50 µM

Compound: CCCCCCCCCCCCCC [tetradecane]
- Ki (SaveOBP9): < 10 µM

- Ki (CmedGOBP1; [3]): > 50 µM
- IC50 (CmedGOBP1; [4]): 219 µM
- Ki (CmedGOBP2; [5]): > 50 µM
- IC50 (CmedGOBP2; [6]): 99.7 µM
- Ki (CmedPBP2; [7]): > 50 µM
- IC50 (CmedPBP2; [8]): 224 µM
- Ki (CmedOBP1; [9]): 12 µM
- IC50 (CmedOBP1; [10]): 68.1 µM
- Ki (CmedOBP1; CmedOBP1, read-out: Ki value): < 20 µM
- Ki (CmedOBP6; [11]): > 50 µM
- IC50 (CmedOBP6; [12]): 624 µM
- Ki (CmedOBP15; [13]): > 50 µM
- IC50 (CmedOBP15; [14]): 290 µM
- Ki (CmedOBP26; [15]): 31.9 µM
- IC50 (CmedOBP26; [16]): 52.3 µM
- Ki (CmedOBP26; CmedOBP26, read-out: Ki value): 20 to 50 µM
Compound: CCCCCCCO [1-Heptanol, 1-heptanol]

- Ki (CmedGOBP1; [3]): > 50 µM
- IC50 (CmedGOBP1; [4]): 223 µM
- Ki (CmedGOBP2; [5]): > 50 µM
- IC50 (CmedGOBP2; [6]): 454 µM
- Ki (CmedPBP2; [7]): > 50 µM
- IC50 (CmedPBP2; [8]): 235 µM
- Ki (CmedOBP1; [9]): 31.5 µM
- IC50 (CmedOBP1; [10]): 179 µM
- Ki (CmedOBP6; [11]): > 50 µM
- IC50 (CmedOBP6; [12]): 558 µM
- Ki (CmedOBP15; [13]): 13.6 µM
- IC50 (CmedOBP15; [14]): 34.4 µM
- Ki (CmedOBP15; CmedOBP15, read-out: Ki value): < 20 µM
- Ki (CmedOBP26; [15]): > 50 µM
- IC50 (CmedOBP26; [16]): 96.1 µM
Compound: CC(=O)OCc1ccccc1 [Benzyl Acetate, benzyl acetate]

Compound: CCCCCC=O [Hexanal, hexanal]
- IC50 (CmedGOBP1): 249 µM
- Ki (CmedGOBP1): > 50 µM
- IC50 (CmedGOBP2): 622 µM
- Ki (CmedGOBP2): > 50 µM
- IC50 (CmedPBP2): 155 µM
- Ki (CmedPBP2): > 50 µM
- IC50 (CmedOBP1): 99.2 µM
- Ki (CmedOBP1; Ki value, CmedOBP1): < 20 µM
- Ki (CmedOBP1; [1]): 17.5 µM
- IC50 (CmedOBP6): 383 µM
- Ki (CmedOBP6): > 50 µM
- IC50 (CmedOBP15): 441 µM
- Ki (CmedOBP15; [2]): > 50 µM
- IC50 (CmedOBP26): 200 µM
- Ki (CmedOBP26): > 50 µM

Compound: CCCCCCCC=O [octanal]
- Ki (SaveOBP9): < 10 µM

Compound: CCCCCCCCCCCCCCCC [hexadecane]
- Ki (SaveOBP9): < 10 µM
